Experimental data taken from patent US20140030368A1, “COMPOSITION FOR PREVENTING OR TREATING A RESPIRATORY DISEASE CONTAINING A MIXED HERBAL EXTRACT OF CNIDIUM OFFICINALE ROOT AND POLYGONI CUSPIDATI ROOT” (WHANIN PHARMACEUTICAL CO., LTD., priority 2011, published 2014).

Legend:
5-lipoxygenase = molecular target: T1, 5-lipoxygenase (Rattus norvegicus, UniProt P12527); test: 5-Lipoxygenase inhibitory activity (leukotriene production in RBL-1 cells, cysteinyl leukotriene EIA); format: cell-based; settings: 2 μM; RBL-1 cells; read-out: 5-lipoxygenase inhibition rate(%)
T1 construct: rat basophilic leukemia cells (RBL-1) were stabilized using serum-free RPMI medium; endogenous in cells; host or cells: RBL-1 (rat basophilic leukemia cells)
Procedure: Specifically, rat basophilic leukemia cells (RBL-1) were stabilized using serum-free RPMI medium at 37° C., and each of the extracts and arachidonic acid as a substrate were added thereto and incubated for 15 minutes to produce leukotriene. The amount of the produced leukotriene was measured using a cysteinyl leukotriene EIA kit. As comparative drugs, the 5-lipoxygenase inhibitors zileuton and montelukast were used.

[1] = tested on: airway constriction of the sensitized guinea pigs; test: Test for airway constriction inhibition (in vivo), airway resistance AUC after ovalbumin aerosol; settings: oral dose 10 mg/kg
[2] = tested on: co-stimulatory molecules CD40, CD80, CD86 and MHCII; test: Co-stimulatory molecules in lung dendritic cells, E. coli-EV-induced model (FACS); format: in vivo, mice; settings: 1 mg/kg twice a day, FIG. 5
Procedure: In order to examine whether the extract of the present invention has the effect of inhibiting the expression of co-stimulatory molecules in dendritic cells isolated from the lung tissue of an E. coli-EV-induced asthma/chronic obstructive pulmonary disease model, the following test was performed.
Specifically, a portion of the lung tissue obtained in Test Example 8-4 was cut finely with a blade, and then incubated with 5 ml of 1× Trypsin-EDTA and 1000 units of collagenase at 37 °C for 10 minutes. Then, the tissue was passed through a 100 μm mesh to collect only immune cells, and the cells were double-stained with each of the dendritic cell marker CD11c and the co-stimulatory molecules CD40, CD80, CD86 and MHCII (major histocompatibility complex II). Next, the expression levels of the co-stimulatory molecules in the dendritic cells were measured using FACS (fluorescence activated cell sorter), and the results of the measurement are shown in FIG. 5.

T1 sequence (P12527 whole entry): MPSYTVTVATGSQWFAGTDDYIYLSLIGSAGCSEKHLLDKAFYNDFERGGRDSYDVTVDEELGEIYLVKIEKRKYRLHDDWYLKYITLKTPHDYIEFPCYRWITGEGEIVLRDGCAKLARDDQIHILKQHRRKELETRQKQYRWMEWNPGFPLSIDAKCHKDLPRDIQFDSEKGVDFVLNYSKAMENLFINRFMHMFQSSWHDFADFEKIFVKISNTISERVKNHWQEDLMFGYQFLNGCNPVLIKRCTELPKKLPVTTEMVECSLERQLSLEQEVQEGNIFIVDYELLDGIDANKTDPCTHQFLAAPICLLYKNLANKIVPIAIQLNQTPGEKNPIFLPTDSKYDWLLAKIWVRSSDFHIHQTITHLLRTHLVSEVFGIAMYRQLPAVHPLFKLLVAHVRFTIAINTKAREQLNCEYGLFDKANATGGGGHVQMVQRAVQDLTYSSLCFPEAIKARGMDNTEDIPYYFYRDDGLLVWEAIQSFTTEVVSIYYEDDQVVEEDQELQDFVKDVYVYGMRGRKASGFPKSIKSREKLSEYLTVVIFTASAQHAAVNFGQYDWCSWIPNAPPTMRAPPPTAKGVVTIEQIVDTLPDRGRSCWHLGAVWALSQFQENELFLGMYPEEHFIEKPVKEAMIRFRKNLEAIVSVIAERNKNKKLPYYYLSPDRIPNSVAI

SMILES	inhibition at 2 µM (5-lipoxygenase) [%]	Airway constriction inhibition rate (%) [1] [%]	expression levels of the co-stimulatory molecules in the dendritic cells [2]
CC(C)(O)c1ccccc1CC[C@@H](SCC1(CC(=O)O)CC1)c1cccc(/C=C/c2ccc3ccc(Cl)cc3n2)c1 [montelukast]	45	53	
C[C@@H]1C[C@H]2[C@@H]3CCC4=CC(=O)C=C[C@]4(C)[C@@]3(F)[C@@H](O)C[C@]2(C)[C@@]1(O)C(=O)CO [Dexamethason, dexamethason]			a decrease in the expression of CD86 and MHCII
